The record followed here is the supplement of paper PMC10307832.

What all share (assay): relative viability (nuclei count vs DMSO), 5 days (fraction); higher = more cells survive
Compound in experiment [1]: CC1=C(C(=O)N2C=CSC2=N1)CCN3CCC(=C(C4=CC=CC=C4)C5=CC=C(C=C5)F)CC3 + CCNC(=O)c1noc(-c2cc(C(C)C)c(O)cc2O)c1-c1ccc(CN2CCOCC2)cc1 [Luminespib] (partner 0.01 µM)
A digest of the protocol: (§1)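 A single step with final 0.05% Triton X-100, 1% formaldehyde and 1 ug/ml Hoechst fixed the cells and stained nuclei 5 days after treatment. Lung cancer cell lines in 1536-well plates had been treated by pin tool the day after seeding with one drug alone or a fixed anchor-drug dose plus five library-drug doses (not always all listed) in √10 steps, and nuclei were counted on 4× images. Relative viability is the ratio of nuclei in treated wells to nuclei in vehicle wells, taken as the median of duplicate plates.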

Compound in experiment [2]: CC1=C(C(=O)N2C=CSC2=N1)CCN3CCC(=C(C4=CC=CC=C4)C5=CC=C(C=C5)F)CC3 + COc1cccc2cc(-c3nc([C@H]4CC[C@H](C(=O)O)CC4)n4ncnc(N)c34)[nH]c12 [OSI-027] (partner 0.5 µM)
A digest of the protocol: as §1

Compound in experiment [3]: CC1=C(C(=O)N2C=CSC2=N1)CCN3CCC(=C(C4=CC=CC=C4)C5=CC=C(C=C5)F)CC3 + CS(=O)(=O)CCNCc1ccc(-c2ccc3ncnc(Nc4ccc(OCc5cccc(F)c5)c(Cl)c4)c3c2)o1 [Lapatinib] (partner 2 µM)
Summed up:
as §1

Compound in experiment [4]: CC1=C(C(=O)N2C=CSC2=N1)CCN3CCC(=C(C4=CC=CC=C4)C5=CC=C(C=C5)F)CC3 + C[C@]1(O)C[C@@H](c2nc(-c3ccc4ccc(-c5ccccc5)nc4c3)c3c(N)nccn32)C1 [Linsitinib] (partner 1 µM)
A digest of the protocol: as §1

In the case of NCI-H1651, the relative viability in experiment [1] (first compound 0.08 µM) came to 1.04; in experiment [1] (first compound 0.253 µM) it was 0.943; in experiment [1] (first compound 0.8 µM), 1.07; in experiment [1] (first compound 2.53 µM), 1.04; in experiment [1] (first compound 8 µM) it was 0.588; in experiment [2] (first compound 0.08 µM) it was 0.71. The relative viability in experiment [2] (first compound 0.253 µM) is 0.768; in experiment [2] (first compound 0.8 µM), 0.698; in experiment [2] (first compound 2.53 µM), 0.697; in experiment [2] (first compound 8 µM), 0.461; in experiment [3] (first compound 0.08 µM) it was 0.876; in experiment [3] (first compound 0.253 µM), 0.759. The relative viability in experiment [3] (first compound 0.8 µM) was determined as 0.912; in experiment [3] (first compound 2.53 µM), 1.02; in experiment [3] (first compound 8 µM) it was 0.514; in experiment [4] (first compound 0.08 µM), 0.925; in experiment [4] (first compound 0.253 µM), 0.863; in experiment [4] (first compound 0.8 µM), 0.969. For the same cell line, the relative viability stood at 1.19 in experiment [4] (first compound 2.53 µM) and 0.673 in experiment [4] (first compound 8 µM).
As to LK-2, the relative viability in experiment [1] (first compound 0.08 µM) is 0.154; in experiment [1] (first compound 0.253 µM), 0.21; in experiment [1] (first compound 0.8 µM), 0.186; in experiment [1] (first compound 2.53 µM), 0.191; in experiment [1] (first compound 8 µM), 0.162; in experiment [2] (first compound 0.08 µM) it was 0.242. Moreover, the relative viability turned out to be 0.188 in experiment [2] (first compound 0.253 µM); 0.156 in experiment [2] (first compound 0.8 µM); 0.18 in experiment [2] (first compound 2.53 µM); 0.212 in experiment [2] (first compound 8 µM); 0.764 in experiment [3] (first compound 0.08 µM); 0.772 in experiment [3] (first compound 0.253 µM). The relative viability in experiment [3] (first compound 0.8 µM) came to 1.01; in experiment [3] (first compound 2.53 µM), 0.903; in experiment [3] (first compound 8 µM), 0.633; in experiment [4] (first compound 0.08 µM) it was 0.548; in experiment [4] (first compound 0.253 µM), 0.531; in experiment [4] (first compound 0.8 µM) it was 0.846. For the same cell line, the relative viability in experiment [4] (first compound 2.53 µM) is 0.502; in experiment [4] (first compound 8 µM) it was 0.529.
With NCI-H2126, the relative viability in experiment [1] (first compound 0.08 µM) stood at 0.613; in experiment [1] (first compound 0.253 µM) it was 1.08; in experiment [1] (first compound 0.8 µM), 0.903; in experiment [1] (first compound 2.53 µM), 0.92; in experiment [1] (first compound 8 µM), 0.843; in experiment [2] (first compound 0.08 µM) it was 0.719. Also, the relative viability in experiment [2] (first compound 0.253 µM) turned out to be 0.753; in experiment [2] (first compound 0.8 µM) it was 0.699; in experiment [2] (first compound 2.53 µM) it was 0.779; in experiment [2] (first compound 8 µM), 0.792; in experiment [3] (first compound 0.08 µM) it was 0.848; in experiment [3] (first compound 0.253 µM), 0.815. The relative viability in experiment [3] (first compound 0.8 µM) was 0.77; in experiment [3] (first compound 2.53 µM) it was 0.772; in experiment [3] (first compound 8 µM) it was 0.836; in experiment [4] (first compound 0.08 µM), 0.712; in experiment [4] (first compound 0.253 µM), 0.729; in experiment [4] (first compound 0.8 µM) it was 0.801. Also, the relative viability is 0.797 in experiment [4] (first compound 2.53 µM) and 0.716 in experiment [4] (first compound 8 µM).
In the case of EPLC-272H, the relative viability in experiment [1] (first compound 0.08 µM) worked out at 0.276; in experiment [1] (first compound 0.253 µM) it was 0.227; in experiment [1] (first compound 0.8 µM), 0.197; in experiment [1] (first compound 2.53 µM), 0.423; in experiment [1] (first compound 8 µM), 0.268; in experiment [2] (first compound 0.08 µM) it was 0.26. The relative viability in experiment [2] (first compound 0.253 µM) was found to be 0.282; in experiment [2] (first compound 0.8 µM) it was 0.316; in experiment [2] (first compound 2.53 µM) it was 0.262; in experiment [2] (first compound 8 µM) it was 0.235; in experiment [3] (first compound 0.253 µM) it was 0.921; in experiment [3] (first compound 0.8 µM) it was 0.809. The relative viability is 1.09 in experiment [3] (first compound 2.53 µM); 0.873 in experiment [3] (first compound 8 µM); 1.17 in experiment [4] (first compound 0.253 µM); 1.2 in experiment [4] (first compound 0.8 µM); 1.09 in experiment [4] (first compound 2.53 µM); 0.984 in experiment [4] (first compound 8 µM).
As for LXF-289, the relative viability in experiment [1] (first compound 0.08 µM) worked out at 0.513; in experiment [1] (first compound 0.253 µM), 0.713; in experiment [1] (first compound 0.8 µM) it was 0.599; in experiment [1] (first compound 2.53 µM), 0.839; in experiment [1] (first compound 8 µM) it was 0.529; in experiment [2] (first compound 0.08 µM), 0.784. In addition, the relative viability in experiment [2] (first compound 0.253 µM) was found to be 0.79; in experiment [2] (first compound 0.8 µM), 0.779; in experiment [2] (first compound 2.53 µM), 0.884; in experiment [2] (first compound 8 µM), 0.55; in experiment [3] (first compound 0.08 µM), 0.98; in experiment [3] (first compound 0.253 µM), 0.953. Moreover, the relative viability in experiment [3] (first compound 0.8 µM) is 0.926; in experiment [3] (first compound 2.53 µM), 0.907; in experiment [3] (first compound 8 µM) it was 0.844; in experiment [4] (first compound 0.08 µM), 0.948; in experiment [4] (first compound 0.253 µM) it was 1.1; in experiment [4] (first compound 0.8 µM), 0.989. In addition, the relative viability came out at 0.96 in experiment [4] (first compound 2.53 µM) and 0.83 in experiment [4] (first compound 8 µM).
Regarding NCI-H838, the relative viability in experiment [1] (first compound 0.08 µM) came out at 0.298; in experiment [1] (first compound 0.253 µM), 0.263; in experiment [1] (first compound 0.8 µM), 0.227; in experiment [1] (first compound 2.53 µM), 0.318; in experiment [1] (first compound 8 µM), 0.259; in experiment [2] (first compound 0.08 µM), 0.445. Further, the relative viability in experiment [2] (first compound 0.253 µM) was found to be 0.339; in experiment [2] (first compound 0.8 µM), 0.37; in experiment [2] (first compound 2.53 µM), 0.454; in experiment [2] (first compound 8 µM), 0.352; in experiment [3] (first compound 0.08 µM), 0.806; in experiment [3] (first compound 0.253 µM), 0.826. For the same cell line, the relative viability in experiment [3] (first compound 0.8 µM) amounted to 0.917; in experiment [3] (first compound 2.53 µM) it was 1.43; in experiment [3] (first compound 8 µM), 0.596; in experiment [4] (first compound 0.08 µM) it was 1.02; in experiment [4] (first compound 0.253 µM), 1.02; in experiment [4] (first compound 0.8 µM) it was 1.02. The relative viability in experiment [4] (first compound 2.53 µM) is 1.31; in experiment [4] (first compound 8 µM), 0.809.
Turning to NCI-H2347, the relative viability worked out at 0.367 in experiment [1] (first compound 0.08 µM); 0.361 in experiment [1] (first compound 0.253 µM); 0.353 in experiment [1] (first compound 0.8 µM); 0.334 in experiment [1] (first compound 2.53 µM); 0.547 in experiment [1] (first compound 8 µM); 0.371 in experiment [2] (first compound 0.08 µM). Besides, the relative viability was 0.425 in experiment [2] (first compound 0.253 µM); 0.406 in experiment [2] (first compound 0.8 µM); 0.332 in experiment [2] (first compound 2.53 µM); 0.349 in experiment [2] (first compound 8 µM); 0.947 in experiment [3] (first compound 0.08 µM); 1.12 in experiment [3] (first compound 0.253 µM). For the same cell line, the relative viability was 0.965 in experiment [3] (first compound 0.8 µM); 0.931 in experiment [3] (first compound 2.53 µM); 0.917 in experiment [3] (first compound 8 µM); 0.921 in experiment [4] (first compound 0.08 µM); 0.958 in experiment [4] (first compound 0.253 µM); 0.977 in experiment [4] (first compound 0.8 µM). The results for the relative viability in experiment [4] (first compound 2.53 µM) and in experiment [4] (first compound 8 µM) were 0.932 and 0.804, respectively.
